The values that follow come from patent publication US20260241026A1, “THERAPEUTIC METHOD FOR LOW-DRUG-SENSITIVITY CANCERS BY ADMINISTRATION OF ANTI-MUC1 ANTIBODY-DRUG CONJUGATE” (priority 2023, published 2026).

Assay [1] has as its system lung cancer PDX model (NIBIO-NS1). Nature of the assay: Antitumor test in lung cancer patient-derived xenograft model NIBIO-NS1. It is filed as in vivo, female nude mice. The source says:
NIBIO-NS1 was obtained as a lung cancer PDX model from the National Institute of Biomedical Innovation. A frozen tumor section of NIBIO-NS1 was thawed and subcutaneously transplanted to 5-week old female NSG mice (NOD. Cg-Prkdc Il2rg<tm1Wjl>/SzJ: purchased from Jackson Laboratory Japan, Inc.) using a trocar. Grown tumor was collected, cut into small pieces, and transplanted again to female nude mice (CAnN. Cg-Foxn1nu/CrlCrlj: purchased from Jackson Laboratory Japan, Inc.) using a trocar, followed by extended growth.
The female nude mice with transplanted NIBIO-NS1 were grouped 10 days after transplantation when their average tumor volume became about 157 mm^3. […] Six mice per group were used in groups 1 and 2, and 12 mice were used in group 3.

Assay [2] concerns bladder cancer PDX model (NIBIO-K071). Nature of the assay: Antitumor test in bladder cancer patient-derived xenograft model NIBIO-K071. It is filed as in vivo, female nude mice. The source says: NIBIO-[…] was obtained as a bladder cancer patient-derived xenograft model (PDX model) from the National Institute of Biomedical Innovation. A frozen tumor section of NIBIO-[…] was thawed and subcutaneously transplanted to 4- to 6-week old female NSG mice (NOD. Cg-Prkdc Il2rg<tm1Wjl>/SzJ: purchased from Charles River Laboratories Japan, Inc.) using a trocar. Grown tumor was collected, cut into small pieces, and transplanted again to female NSG mice or female nude mice (CAnN. Cg-Foxn1nu/CrlCrlj: purchased from Charles River Laboratories Japan, Inc.) using a trocar, followed by extended growth. TA-MUC1-, Nectin-4-, and TROP2-positive findings were confirmed in the tumor of this model by immunohistochemical staining (IHC). An estimated tumor volume (ETV) was calculated as described below. Estimated tumor volume (volume,mm^3)=Major axis (mm)×Minor axis (mm)^2/2 The female nude mice with transplanted NIBIO-[…] were grouped 25 days after transplantation when their average tumor volume became about 200 mm^3. […] ABS buffer was administered to a Vehicle administration group. Six mice per group were used in all the groups. After initial administration, body weights and tumor sizes were measured twice a week, and estimated tumor volumes were calculated.

Assay [3] relates to human breast cancer cell line HCC70. Nature of the assay: Antitumor test in model with transplanted breast cancer cell line HCC70 (Example 3). It is filed as in vivo, female nude mouse. The procedure:
The mice were grouped 18 days after transplantation when their average tumor volume became about 165 mm^3. […] ABS buffer was administered to a Vehicle administration group. Six mice per group were used in all the groups.

Where [4] appears, read: 10 mg/kg, QW × two doses (Days 0, 7).
Where [5] appears, read: Day 21, 10 mg/kg, QW × 2, intravenous.

“datopotamab deruxtecan [TROP2-DXd ADC, reference compound]”: the “tumor course after regrouping of the TROP2-DXd ADC administration group” value in assay [1] (10 mg/kg on Day 11 to tumors pre-treated with TROP2-DXd ADC, up to Day 31 (TA-MUC1-DXd ADC) or Day 21 (TROP2-DXd ADC)) is recorded as “grew continuously”. For the same substance, the tumor regression effect entry in assay [1] (Day 11, 10 mg/kg on Day 0, NIBIO-NS1) is “no tumor regression”. For the same substance, in assay [1] (Day 11, 10 mg/kg, Day 0, intravenous, NIBIO-NS1), the “ETV (mm^3) Mean” value turned out to be 453 mm^3.
For the substance “enfortumab vedotin [Nectin-4-MMAE ADC, reference compound]”, in assay [2] (3 mg/kg, QW × three doses (Days 0, 7, 14)), the tumor regression result is given as “did not reach tumor regression”. Also, in assay [2] (Day 21, 3 mg/kg, QW × 3, intravenous), the “ETV (mm^3) Mean” value was found to be 772 mm^3.
“sacituzumab govitecan [TROP2-SN38 ADC, reference compound]”: the tumor regression entry in assay [2] (setting [4]) is on record as “did not reach tumor regression”; in assay [3] (setting [4]), “no tumor regression”. Besides, the results for the “ETV (mm^3) Mean” value in assay [2] (setting [5]) and in assay [3] (setting [5]) were 383 mm^3 and 361 mm^3, respectively.
